In patent US7671061B2, “Methods and compositions for treating pain” (Hydra Biosciences, Inc., priority 2005, dated 2010):

Key:
[1] = Plasma levels / pharmacokinetics in male Sprague-Dawley rat; type: in vivo
Description: Compound 200 plasma levels were determined via HPLC/MS/MS following a single intravenous bolus dose of 0.9 mg/kg, an intraperitoneal dose of 12 mg/kg (suspension), and an oral dose of 12 mg/kg (suspension) in the male Sprague-Dawley rat. […] For intraperitoneal administration, Compound 200 was formulated as a uniform suspension in CMC (carboxymethylcellulose) at a target concentration of 1 mg/mL and administered at a dose volume of 10 mL/kg. For oral administration, Compound 200 was formulated as a uniform suspension in CMC (carboxymethylcellulose), at a target concentration of 1 mg/mL, administered by gavage, at a dose volume of 10 mL/kg, to the conscious, fasted, male Sprague-Dawley rat.

formalin model = test: Formalin model of pain; type: in vivo, rat; conditions: both Early Phase and Late Phase, drug 15 min before formalin
Description: As outlined above, the formalin model involves injection of a formalin solution intradermally or […]. Injection of formalin solution invokes a biphasic response, and thus provides a model for both nociceptive and inflammatory pain. The formalin model can be used to evaluate the effectiveness of an exemplary TRPA1 inhibitor in the treatment of pain. […] Briefly, the following protocol was followed. Male Holtzmann rats received intraplantar injections of 50 μL of 2% formalin. Paw flinching was detected by an automated sensor detecting movement of a small metal band placed on the injected hind paw. Drug or vehicle was administered approximately 15 minutes prior to the injection of formalin. The animal's response to injection of the irritant was measured by counting flinches per minutes during the Early Phase (the first 5 minutes following injection of formalin), during the Late Phase (approximately 30 minutes after injection of formalin), and during the intervening pain free phase. In FIG. 2, the right most bar for each data set (Early Phase and Late Phase) represents administration of vehicle alone and the left most bar represents administration of gabapentin. […]

Stability in rat plasma = type: in vitro ADME; conditions: 37° C.
Description: Compound 200 was stable in rat plasma for ≧1 hour at 37° C.

hTRPA1 [2] = target: T1, hTRPA1 (Homo sapiens, UniProt O75762, K186N); test: High throughput Ca2+ fluorescence (Fluo4) assay, AITC stimulation; type: cell-based; conditions: Table 2; read-out: hTRPA1 Fluor IC50
T1 construct: expressed in transfected cells; host or cells: HEK293/TREx (Invitrogen), induced with tetracycline
T1 sequence (O75762 whole entry K186N): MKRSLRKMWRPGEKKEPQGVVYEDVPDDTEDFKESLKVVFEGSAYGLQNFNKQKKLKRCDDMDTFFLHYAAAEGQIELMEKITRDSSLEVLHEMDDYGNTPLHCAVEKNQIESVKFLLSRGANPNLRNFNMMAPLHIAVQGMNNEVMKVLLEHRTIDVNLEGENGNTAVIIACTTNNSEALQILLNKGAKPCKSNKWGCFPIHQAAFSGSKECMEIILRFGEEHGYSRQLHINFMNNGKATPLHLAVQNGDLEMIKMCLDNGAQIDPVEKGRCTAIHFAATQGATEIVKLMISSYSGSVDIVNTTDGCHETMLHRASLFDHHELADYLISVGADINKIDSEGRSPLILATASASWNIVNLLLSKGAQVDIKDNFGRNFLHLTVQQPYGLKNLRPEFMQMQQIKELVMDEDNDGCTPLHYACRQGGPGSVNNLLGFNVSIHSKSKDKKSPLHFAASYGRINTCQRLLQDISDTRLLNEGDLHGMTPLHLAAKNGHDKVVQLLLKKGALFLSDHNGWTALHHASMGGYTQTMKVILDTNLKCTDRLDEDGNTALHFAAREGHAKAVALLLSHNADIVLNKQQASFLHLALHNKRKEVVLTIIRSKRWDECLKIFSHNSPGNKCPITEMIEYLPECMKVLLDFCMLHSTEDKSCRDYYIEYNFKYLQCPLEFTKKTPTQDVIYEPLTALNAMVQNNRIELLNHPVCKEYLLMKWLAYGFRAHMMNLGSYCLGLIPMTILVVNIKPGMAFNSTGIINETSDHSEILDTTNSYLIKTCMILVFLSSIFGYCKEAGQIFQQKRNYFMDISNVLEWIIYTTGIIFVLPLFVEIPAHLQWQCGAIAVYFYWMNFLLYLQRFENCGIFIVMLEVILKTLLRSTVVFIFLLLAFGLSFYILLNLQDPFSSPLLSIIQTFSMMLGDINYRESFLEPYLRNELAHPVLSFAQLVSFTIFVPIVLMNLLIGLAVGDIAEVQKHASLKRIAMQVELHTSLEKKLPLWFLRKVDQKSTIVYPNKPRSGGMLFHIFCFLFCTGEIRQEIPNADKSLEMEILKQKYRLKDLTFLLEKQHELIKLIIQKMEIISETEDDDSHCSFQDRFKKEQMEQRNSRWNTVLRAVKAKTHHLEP
Summary of the method: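 Read-out is Fluo4 fluorescence, proportional to [Ca2+]i, over ~3 min after AITC challenge, following 2 min compound pre-exposure in HEK293/TREx cells induced with 1 μg/ml tetracycline. Dye: 1 μM, 60 min, room temperature.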

hTRPA1 [3] = target: T1, hTRPA1; test: TRPA1 patch clamp (perforated patch, AITC-activated current); type: cell-based
Summary of the method: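 HEK293 TREx cells expressing the channel were recorded by amphotericin perforated patch at −40 mV holding, with 400 ms ramps from −120 to +100 mV every 5 s. Current was activated with 5 μM AITC in pH 7.4 external solution, and block of inward and outward current was measured at −80 and +80 mV with AITC still present.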

[4] = plasma, male Sprague-Dawley rat, intravenous bolus 0.9 mg/kg

CC(C)c1ccc(NC(=O)Cn2cnc3c2c(=O)n(C)c(=O)n3C)cc1 [Compound 200, 2-(1,3-dimethyl-2,6-dioxo-1,2,3,6-tetrahydropurin-7-yl)-N-(4-isopropylphenyl)acetamide]
bioavailability ([1]; male, Sprague-Dawley, plasma, fasted rat, oral suspension 12 mg/kg): ~8%
concentration at 45 min ([1]; male, Sprague-Dawley, plasma, rat, oral 12 mg/kg, 45 min): ~355 ng/mL
clearance [1, 4]: 27 mL/min/kg
half-life [1, 4]: 32 min
Vd ([1]; plasma, male Sprague-Dawley rat, intravenous bolus 0.9 mg/kg, read-out: volume of distribution): 1.28 L/kg
plasma levels ([1]; rat, intraperitoneal 12 mg/kg, 15-60 min): ~355 ng/mL
flinches per minute (formalin model): substantially reduced
stable in rat plasma (Stability in rat plasma): ≥ 1 h
IC50 (hTRPA1 [2]): ≤ 5 µM
IC50 (hTRPA1 [3]; Table 2, inward current, read-out: hTRPA1 Patch Inwd IC50): ≤ 5 µM
IC50 (hTRPA1 [3]; stated in Example 4 (1000 nM=355 ng/mL), read-out: IC50 against TRPA1): 1 µM
